Earlier results in US4529593A, “Use of gallium salts to treat disorders of calcium homeostasis” (Sloan-Kettering Institute for Cancer Research, priority 1984, dated 1985).

Experiments:
[1] = test system: bone cells (particularly osteoclasts); conditions: comparatively brief exposure; Minkin 1973, Bockman unpublished; cited from earlier work
blood calcium levels = conditions: prior knowledge; cited from earlier work

Compound: CO[C@H](C(=O)[C@@H](O)[C@@H](C)O)[C@@H]1Cc2cc3cc(O[C@H]4C[C@@H](O[C@H]5C[C@@H](O)[C@H](O)[C@@H](C)O5)[C@H](O)[C@@H](C)O4)c(C)c(O)c3c(O)c2C(=O)[C@H]1O[C@H]1C[C@@H](O[C@H]2C[C@@H](O[C@H]3C[C@](C)(O)[C@H](O)[C@@H](C)O3)[C@@H](O)[C@@H](C)O2)[C@H](O)[C@@H](C)O1 [Mithramycin]
- loss of bone cells (particularly osteoclasts) number [1]: considerable loss of bone cells
- blood calcium levels (blood calcium levels): can also reduce blood calcium levels
